Results published in patent US4962097A, “Method of treating bacterial infection with phosphorus containing DHP enzyme inhibitors” (Merck & Co., Inc., priority 1989, dated 1990).

Target: T1, renal dehydropeptidase I (Sus scrofa, UniProt P22412)
T1 construct: isolated from hog kidneys; from tissue; host or cells: hog kidney
T1 sequence (P22412 17-409): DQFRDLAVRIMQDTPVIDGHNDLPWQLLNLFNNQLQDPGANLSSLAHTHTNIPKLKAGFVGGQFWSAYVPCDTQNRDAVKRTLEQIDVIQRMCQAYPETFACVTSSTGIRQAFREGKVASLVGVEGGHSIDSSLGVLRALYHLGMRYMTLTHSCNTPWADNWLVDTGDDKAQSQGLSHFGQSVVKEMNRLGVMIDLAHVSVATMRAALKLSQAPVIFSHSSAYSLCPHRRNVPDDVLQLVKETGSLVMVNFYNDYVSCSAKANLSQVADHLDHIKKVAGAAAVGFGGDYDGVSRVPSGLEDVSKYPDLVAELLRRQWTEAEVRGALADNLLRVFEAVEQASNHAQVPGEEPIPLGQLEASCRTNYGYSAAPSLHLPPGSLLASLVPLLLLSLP
Experiment: in vitro screen: inhibition of hydrolysis of glycyldehydrophenylalanine (GDP) by solubilized renal dipeptidase from hog kidneys (renal dehydropeptidase I inhibition)
Type: biochemical
Conditions: GDP 0.05 mM, 50 mM MOPS pH 7.1, 37° C., 275 nm
Method: This measured the ability of compounds to inhibit hydrolysis of glycyldehydrophenylalanine (GDP) by a solubilized preparation of […] isolated from hog kidneys. The procedure is as follows: to a 1 ml system containing 50 mM "MOPS" (3-(N-morpholino)-propanesulfonic acid) buffer, pH 7.1 is added 5 mg of lyophilized enzyme, and the test compound at a final concentration of 0.1 mM. After a five minute incubation at 37° C., GDP is added to a final concentration of 0.05 mM. Incubation is continued for 10 minutes, at 37° C. and hydroylsis of GDP is measured by the change in optical density with time at 275 nm. Inhibition of the enzyme is gauged by comparison to a standard run containing no inhibitor and is expressed as the inhibitor binding constant K. This is the concentration of the inhibitor which achieves 50% inhibition of the enzyme.

[1] = Table II, structure I (saturated)
[2] = Table I, structure II (olefins)

## CCCCCC(N)P(=O)(O)CC(CCC1CCCC1)C(=O)O (racemic) [CH3 (CH2)4; (cyclo-C5 H9)CH2 CH2; RS; RS, (1-Amino-1-hexyl) 2-carboxy-4-cyclopenyl-1-butyl phosphinic acid]
[1]
  Ki: 7 nM

## CCCCCCC(CP(=O)(O)C(N)CCCCC)C(=O)O (racemic) [CH3 (CH2)4; CH3 (CH2)5; RS; RS, (1-Amino-1hexyl) 2-carboxy-l-octyl phosphinic acid]
[1]
  Ki: 8 nM

## CCCCC(CP(=O)(O)C(N)CC)C(=O)O (racemic) [CH3 CH2; CH3 (CH2)3; RS; RS, 1-Aminopropyl-[2-carboxy-l-hexyl]phosphinic acid]
[1]
  Ki: 2.3 nM

## CCC(CP(=O)(O)C(N)CC)C(=O)O (racemic) [CH3 CH2; CH3 CH2; RS; RS, 1-Aminopropyl-[2-carboxy-l-butyl]phosphinic acid]
[1]
  Ki: 1.3 nM

## CCC(N)P(=O)(O)CC(CCc1ccccc1)C(=O)O (racemic) [CH3 CH2; Ph(CH2)2; RS; RS, 1-Aminopropyl-[2-carboxy-4-phenyl-l-butyl]phosphinic acid]
[1]
  Ki: 6.8 nM

## N[C@@H](CC1CCCCC1)P(=O)(O)C/C(=C\CC1CCCC1)C(=O)O [(1(R)-Amino-2-cyclohexylethyl)2-carboxy-4-cyclopentyl-2(Z)-butenyl phosphinic acid]
[2]
  Ki: 0.86 nM

## N[C@@H](CC1CCCCC1)P(=O)(O)CC(CCC1CCCC1)C(=O)O (some centres unmarked) [(1-Amino-2-cyclohexylethyl) 2-carboxy-4-cyclopentyl-1-butyl phosphinic acid]
[1]
  Ki: 2.7 nM

## N[C@@H](CC1CCCCC1)P(=O)(O)CC(CC1CCCCC1)C(=O)O (some centres unmarked) [(1-Amino-2-cyclohexylethyl)-2-carboxy-3-cyclohexyl-1-propyl phosphinic acid]
[1]
  Ki: 0.5 nM

## N[C@@H](CC1CCCCC1)P(=O)(O)CC(CCCc1ccncc1)C(=O)O (some centres unmarked) [(1-Amino-2-cyclohexylethyl)-2-carboxy-5-(4-pyridyl)-pentyl phosphinic acid]
[1]
  Ki: 4 nM

## CCCCC(CP(=O)(O)C(N)CC(C)C)C(=O)O (centres unmarked) [(CH3)2 CHCH2; CH3 (CH2)3; RS; RS, 1-Amino-3-methylbutyl-[2-carboxy-1-hexyl]phosphinic acid]
[1]
  Ki: 2.4 nM

## CCCC/C=C(\CP(=O)(O)C(N)CC(C)C)C(=O)O (centres unmarked) [(CH3)2 CHCH2; CH3 (CH2)3; RS; Z]
[2]
  Ki: 1.6 nM

## CC(C)/C=C(\CP(=O)(O)[C@@H](N)CC1CCCCC1)C(=O)O [(cyclo-C6 H11)CH2; (CH3)2 CH; R; Z]
[2]
  Ki: 0.54 nM

## CCCCC/C=C(\CP(=O)(O)C(N)CC1CCCCC1)C(=O)O (centres unmarked) [(cyclo-C6 H11)CH2; CH3 (CH2)4; RS; Z, (1-Amino-2-cyclohexylethyl) 2-carboxy-2(Z)-octenyl phosphinic acid]
[2]
  Ki: 3.1 nM

## CCCCCCC(CP(=O)(O)C(N)CC1CCCCC1)C(=O)O (centres unmarked) [(cyclo-C6 H11)CH2; CH3 (CH2)5; RS; RS, (1-Amino-2-cyclohexylethyl) 2-carboxy-1-octyl phosphinic acid]
[1]
  Ki: 1.6 nM

## N[C@@H](CC1CCCCC1)P(=O)(O)C/C(=C\C1CCCCC1)C(=O)O [(cyclo-C6 H11)CH2; cyclo-C6 H11; R; Z, (1(R)-Amino-2-cyclohexylethyl)2-carboxyl-3(Z)-cyclohexyl-2-propenyl phosphinic acid]
[2]
  Ki: 0.52 nM

## NC(CC1CCCCC1)P(=O)(O)C/C(=C\C1CCCCC1)C(=O)O (centres unmarked) [(cyclo-C6 H11)CH2; cyclo-C6 H11; RS; Z, (1-Amino-2-cyclohexylethyl) 2-carboxy-3(Z)-cyclohexyl-2-propenyl phosphinic acid]
[2]
  Ki: 0.9 nM

## CCCCCC(N)P(=O)(O)CC(CC1CCCCC1)C(=O)O (centres unmarked) [CH3 (CH2)4; (cyclo-C6 H11)CH2; RS; RS, (1-Amino-1-hexyl) 2-carboxy-3-cyclohexyl-1-propyl phosphinic acid]
[1]
  Ki: 9.7 nM

## CCCCC/C=C(\CP(=O)(O)C(N)CCCCC)C(=O)O (centres unmarked) [CH3 (CH2)4; CH3 (CH2)4; RS; Z, (1-Aminohexyl) 2-carboxy-2(Z)-octenyl phosphinic acid]
[2]
  Ki: 1.4 nM

## CCCCCC(N)P(=O)(O)C/C(=C\C1CCCCC1)C(=O)O (centres unmarked) [CH3 (CH2)4; cyclo-C6 H11; RS; Z, (1-Aminohexyl) 2-carboxy-3-cyclohexyl-2(Z)-propenyl phosphinic acid]
[2]
  Ki: 0.5 nM

## CCCCC(CP(=O)(O)C(N)Cc1ccccc1)C(=O)O (centres unmarked) [PhCH2; CH3 (CH2)3; RS; RS, 1-Amino-2-phenylethyl-[2-carboxy-1-hexyl]phosphinic acid]
[1]
  Ki: 84 nM

## CCCCC/C=C(\CP(=O)(O)C(N)Cc1ccccc1)C(=O)O (centres unmarked) [PhCH2; CH3 (CH2)4; RS; Z]
[2]
  Ki: 68 nM

## (1(R)-Amino-2-cyclohexylethyl)2-carboxyl-4-methyl-(E & Z)-2-butenyl phosphinic acids (15C & 15D) [(cyclo-C6 H11)CH2; (CH3)2 CH; RS; Z] [listing 1 of 2 here]
[2]
  Ki: 2.1 nM

## (1(R)-Amino-2-cyclohexylethyl)2-carboxyl-4-methyl-(E & Z)-2-butenyl phosphinic acids (15C & 15D) [(cyclo-C6 H11)CH2; (CH3)2 CH; RS; Z] [listing 2 of 2 here]
[2]
  Ki: 21 nM
